{"source": "patent US10363261B2", "about": "“Enolase inhibitors and methods of treatment therewith” (Board of Regents, The University of Texas System, priority 2015, dated 2019)", "target": "ENO2 (Homo sapiens, UniProt P09104)", "sequence (P09104 whole entry)": "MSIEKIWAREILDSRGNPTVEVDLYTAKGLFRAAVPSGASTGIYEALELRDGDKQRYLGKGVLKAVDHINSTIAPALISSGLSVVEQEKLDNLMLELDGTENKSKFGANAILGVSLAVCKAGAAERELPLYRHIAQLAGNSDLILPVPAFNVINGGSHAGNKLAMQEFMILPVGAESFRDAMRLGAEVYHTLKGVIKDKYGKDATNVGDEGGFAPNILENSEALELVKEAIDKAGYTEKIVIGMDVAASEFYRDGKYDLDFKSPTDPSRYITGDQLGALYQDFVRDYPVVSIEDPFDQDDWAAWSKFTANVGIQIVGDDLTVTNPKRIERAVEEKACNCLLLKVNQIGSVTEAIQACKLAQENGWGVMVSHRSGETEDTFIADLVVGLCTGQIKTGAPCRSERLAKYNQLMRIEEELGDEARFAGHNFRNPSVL", "experiment": "Thermal shift assay on recombinant human ENO2 expressed in E. coli", "type": "binding", "parameters": "DNA encoding full length Human Enolase 2 was cloned into pJL-H6 plasmid expression vector; His tag (pJL-H6) (C); made in house; host or cells: E. coli BL21 (DE3)", "details": "10 μM inhibitor", "procedure": "Thermal shift assays were conducted as described in Martinez Molina, et al. (2013), on lysates of D423 cell line overexpressing ENO1 and ENO2, on recombinant human ENO1 and ENO2 purified from E. coli as well as intact D423 ENO2 overexpressing glioma cells. […] Lysates were diluted (1:100) in Enolase enzymatic activity buffer as mentioned above. Diluted lysates were treated with SF2312, PhAH or vehicle and heated on a C1000 Thermal cycler (Bio-rad) with a linear temperature gradient (50 to 82.5° C. in 2.5° C. increments) for 3 minutes (FIG. 24). The lysates were then centrifuged at 20,000 g for 10 minutes. Supernatant and pellet were then separated and NuPage LDS Sample buffer (Life Technologies # NP0007) was added. Western Blots were performed as described previously (Muller, et al., 2012). The following antibodies were used: ENO1 (Abcam # ab155102), ENO2 (Dako # M087301-2), Vinculin (EMD Millipore #05-386), pan-ENO (Santa Cruz Biotechnology, sc-7455) and TPI (Proteintech #10713-1-AP). Recombinant human ENO2: The same procedure was carried out on purified recombinant ENO2 from E. coli, utilizing the purified protein generated for the X-ray crystallography studies. […]", "data": [{"smiles": "O=C1C(P(=O)(O)O)CC(O)N1O", "note": "(racemic) [SF2312, 3-dihydroxyphosphoryl-1,5-dihydroxy-2-pyrrolidone]", "values": [{"measurement": "thermal stabilization of recombinant ENO2", "result": "~15", "unit": "°C"}]}]}
